From the NIST ThermoML archive (doi:10.1021/je9006037)

Columns and labels:
[1] = 298.15 K; 101.33 kPa; Liquid
[2] = refractive index (Na D-line) (dimensionless); xn = mol fraction of the nth substance listed; conditions: 101 kPa, Liquid

CCn1cc[n+](C)c1.O=S(=O)([O-])C(F)(F)F [1-ethyl-3-methylimidazolium trifluoromethanesulfonate]
Conditions	mass density [kg/m3]
[1]	1383.58

CCn1cc[n+](C)c1.O=S(=O)([O-])C(F)(F)F [1-ethyl-3-methylimidazolium trifluoromethanesulfonate] + CCO
refractive index, [2]
Conditions	288.15 K	298.15 K	308.15 K	318.15 K	328.15 K
x1 = 0.05087	1.37603	1.37224	1.36847	1.3647	1.36088
x1 = 0.1004	1.38531	1.38169	1.37828	1.37496	1.37123
x1 = 0.1504	1.39279	1.38937	1.38635	1.38336	1.3795
x1 = 0.201	1.39891	1.39566	1.39241	1.38923	1.38584
x1 = 0.2991	1.40822	1.40549	1.40179	1.39872	1.39607
x1 = 0.3976	1.41506	1.41187	1.40885	1.40581	1.40267
x1 = 0.4976	1.42051	1.41741	1.41441	1.41137	1.40841
x1 = 0.5935	1.4247	1.42164	1.41857	1.41564	1.41275
x1 = 0.6981	1.42832	1.42536	1.42243	1.41956	1.41673
x1 = 0.7994	1.43116	1.42826	1.42543	1.42262	1.41981
x1 = 0.8407	1.4322	1.42937	1.42653	1.42372	1.42093
x1 = 0.892	1.43344	1.43061	1.42781	1.42501	1.42222
x1 = 0.9444	1.43452	1.43172	1.42894	1.42619	1.42346
x1 = 1	1.43599	1.43322	1.4304	1.42767	1.42494
